In one assay the target is T1, EGFR (Homo sapiens, UniProt P00533).
T1 construct: endogenous in cells; host or cells: A431 (human epidermoid carcinoma)
In words: EGFR Activation-Inhibiting Test (DELFIA, EGF-stimulated A431 cells). The following applies: 60 min compound, EGF stimulation 45 min, read-out: IC50 (inhibition of EGF-stimulated EGFR activation). The format is cell-based. The procedure: Cell seeding and starving: A431 (human epidermoid carcinoma) cells diluted in 10% […] containing DMEM are seeded at 1.3×10^4 cells/well in 96-well plates and incubated overnight. Then the cell culture medium is replaced with 90 μL/well serum-free DMEM medium. The plates are incubated overnight for starvation.
Compound dilution and treatment: the test compounds are diluted in a 3-fold series in FBS-free medium containing 5% DMSO. 10 μL/well of the diluted compound is added into cells, 10 μL/well of 5% DMSO without test compound is added into the control wells. Duplication study is performed for each test point. Then, the plates are incubated at 37° C. for 60 minutes in a 5% CO2 incubator. 10 μL/well of 200 ng/mL EGF (Biosource, PHG0064) is added and incubate the plates at 37° C. for 45 minutes in the 5% CO2 incubator.
Lysate preparation: the medium is removed, and 100 μL/well of 50 mM Tris-Cl, pH 8.0 cell lysis buffer (containing 0.5 M NaCl, 0.2 mM EDTA, 0.1% Triton X-100, 1 μg/mL aprotinin, 0.75 μg/mL leupeptin, 1 μg/mL pepstatin, 1 mM DTT, 500 μM sodium vanadate, and 1 mM PMSF) is added into each well to lyse cells. The protease inhibitors are added right before use. The cell lysate is frozen at −80° C. overnight.
Plate coating and blocking: 100 μL/well of 0.5 μg/ml anti-EGFR antibody (Perkin Elmer, AF231) diluted in PBS is added to a 96-well DELFIA plate (Perkin Elmer, AAAND-0001) and incubated at 25° C. overnight with gentle shaking. The solution is discarded. The plate is washed 3 times with 200 μL/well of DELFIA wash buffer (PBS buffer containing 0.05% Tween-20). 200 μL/well of blocking buffer (PBS containing 0.137 M of NaCl, 0.0027 M of KCl, 0.01 M of Na2PO4.12H2O, 0.0015 M of KH2PO4, pH7.4, and 1% BSA) is added into each well and the plate is incubated at 25° C. for 2 h with gentle shaking.
Binding: the blocking buffer is discarded and the plate is washed with 200 μL/well of DELFIA wash buffer 3 times. 80 μL/well of the sample diluent (20 mM Tris-Cl/pH7.3, 150 mM NaCl, 0.1% of BSA, and 0.05% Tween-20) and 20 μL/well of cell lysate are then added to each well. Incubate the plate at 25° C. for additional 1 h with gentle shaking.
Detection: The plate is washed again with 200 μL/well of DELFIA wash buffer for 3 times. 100 μL/well of […] Eu-PT66 antibody (Perkin Elmer, AD0040) diluted in DELFIA assay buffer (Perkin Elmer, 1244-106) is added and incubate the plate at 25° C. for 1 h with gentle shaking. After washing with 200 μL/well of DELFIA wash buffer 3 times, 100 μL/well of DELFIA enhancement buffer (Perkin Elmer, 4001-0010) is added. Incubate the plate at 25° C. for 30 min with gentle shaking.
Readout: fluorescence signal is measured at 340 nm excitation and 620 nm emission on Victor^3 (PerkinElmer).
Inhibition rates are calculated as follow:
[Fluorescence Readout]Treated is the readout of the wells treated with test compound upon EGF stimulation
[Fluorescence Readout]Untreated is the readout of the wells with neither compound treatment nor EGF stimulation, which is used as cell background signal
[Fluorescence Readout]EGF is the readout of wells with EGF stimulation, but no compound treatment, which is used as maximal signal
IC50 is calculated using XL-Fit 2.0 software.

The next assay addresses T2, hERG channels (Homo sapiens, UniProt Q12809).
T2 construct: expressed in transfected cells; host or cells: CHO
In words: hERG assay, manual whole-cell patch clamp. The settings on record: CHO cells expressing hERG, five concentrations, read-out: IC50 for inhibition of hERG tail currents. Format: cell-based. The procedure: A CHO cell line stably transfected with hERG cDNA and expressing hERG channels was used for the study. Cells were cultured in medium containing:
For the electrophysiological recordings the following solutions were used
Whole-cell recordings were performed using a EPC10 USB(HEKA). The cells were voltage clamped at a holding potential of −80 mV. The hERG current was activated by depolarizing at +20 mV for 2 sec, after which the current was taken back to −50 mV for 2 sec to remove the inactivation and observe the deactivating tail current. The first step at −50 mV was used as a baseline for measuring the tail current peak amplitude.
Compounds were prepared as a 10 mM DMSO stock in a glass vial. The stock solution was mixed vigorously for 10 minute at room temperature. For testing, the compound was diluted in a glass vial using solution; the dilution was prepared no longer than 30 minutes before use. Equal amounts of DMSO (0.1%) were present at final dilution.
After achieving whole-cell configuration, the cells were monitored for 90 sec to assess stability and washed with external solution for 66 sec. The voltage protocol described above was then applied to the cells every 20 sec throughout the whole procedure. Only stable cells with recording parameters above threshold were allowed to enter the drug addition procedure. […]
Data were analyzed using Pulsefit and Origin 7 (Originlab Corporation).

Assay [1] concerns HCC827 (human non small cell lung cancer, NSCLC) xenograft. In words: In vivo anti-tumor test, HCC827 subcutaneous xenograft. The following applies: HCC827 xenograft in nude mice. The procedure:
(§1) Human tumor cell lines: Fadu (human head and neck, pharynx carcinoma, HTB-43), HCC827 (human non small cell lung cancer, NSCLC; CRL-2868), A431 (human epidermoid carcinoma, CRL-2592) cell lines were purchased from ATCC; Fadu, HCC827 and A431 cells were grown in EMEM, RPMI 1640 and DMEM medium plus 10% FBS respectively. These cells were incubated in a humidifier incubator at 37° C. and under 5% CO2.
(§2) Animals: Athymic mice (6-8 weeks) were purchased from Shanghai SLAC laboratory animal CO. LTD. The animals were housed in the SPF environment, 4 animals/cage under standard conditions (12:12 h light/dark, 40-50% relative humidity at 20-25° C.) and were given free access to Co^60 radiated-sterile diet and sterile water.
(§3) Agents: Test compounds were formulated in sterile 0.5% CMC-Na at different concentrations (0.05˜1.0 mg/mL), and then stored at 4° C.
(§4) Subcutaneous implantation of tumor cells and anti-tumor efficacy study: The tumor cells were incubated at 37° C. in a 5% CO2 incubator until they reached approximately 80% confluence. Cells were detached by 0.05% Trypsin-EDTA, centrifuged at 800 rpm, and the cells were suspended in serum free medium. The concentration was adjusted for nude mice implantation. The nude mice were quarantined for several days before implantation, and 3×10^6 FaDu or A431 cells in 0.1 mL medium, or 5×10^6 HCC827 cells in the 0.2 mL medium were subcutaneously injected to the right lateral flank of nude mice.
One to three weeks after inoculation, when average tumor volume reached 100-300 mm^3, the animals were randomized and divided into vehicle and compound treated groups. The mice were orally administrated with either the vehicle, 0.5% CMC-Na, or the test compounds at different dose levels once a day. Tumor volume was measured 2-3 times per week by caliper for length and width, and was calculated using the formula: Tumor volume (TV, mm^3)=width^2×length/2. Animal body weight and behavior were observed during the experiment. Tumor growth inhibition was calculated as follows: TGI (%)=100−(T−T0)/(C−C0)×100%, where T represents mean tumor volume of a treated group on a specific day during the experiment, T0 represents mean tumor volume of the same treated group on the first day of treatment, C represents mean tumor volume of a control group on the specific day during the experiment, and C0 represents mean tumor volume of the same control group on the first day of treatment.
Tumor volume data were expressed as Mean±SD. One-way ANOVA was used for multiple comparisons and Student's t-test was used for comparison with vehicle control. Differences were considered statistically significant at P<0.05.

The subject of assay [2] is A431 (human epidermoid carcinoma) xenograft. In words: In vivo anti-tumor test, A431 subcutaneous xenograft. The settings on record: A431 xenograft in nude mice. The procedure: as §1, §2, §3, §4
(§5) One to three weeks after inoculation, when average tumor volume reached 100-300 mm^3, the animals were randomized and divided into vehicle and compound treated groups. The mice were orally administrated with either the vehicle, 0.5% CMC-Na, or the test compounds at different dose levels once a day. Tumor volume was measured 2-3 times per week by caliper for length and width, and was calculated using the formula: Tumor volume (TV, mm^3)=width^2×length/2. Animal body weight and behavior were observed during the experiment. […]
(§6) Tumor volume data were expressed as Mean±SD. […]

Assay [3] deals with Fadu (human head and neck, pharynx carcinoma) xenograft. The assay is described as follows: In vivo anti-tumor test, FaDu subcutaneous xenograft. The following applies: FaDu xenograft in nude mice. The procedure: as §1, §2, §3, §4, §5, §6

The results in this text go back to patent publication US9168253B2, “Quinazoline compounds” (HUTCHISON MEDIPHARMA LIMITED, priority 2010, dated 2015).

T1 sequence (P00533 25-1210): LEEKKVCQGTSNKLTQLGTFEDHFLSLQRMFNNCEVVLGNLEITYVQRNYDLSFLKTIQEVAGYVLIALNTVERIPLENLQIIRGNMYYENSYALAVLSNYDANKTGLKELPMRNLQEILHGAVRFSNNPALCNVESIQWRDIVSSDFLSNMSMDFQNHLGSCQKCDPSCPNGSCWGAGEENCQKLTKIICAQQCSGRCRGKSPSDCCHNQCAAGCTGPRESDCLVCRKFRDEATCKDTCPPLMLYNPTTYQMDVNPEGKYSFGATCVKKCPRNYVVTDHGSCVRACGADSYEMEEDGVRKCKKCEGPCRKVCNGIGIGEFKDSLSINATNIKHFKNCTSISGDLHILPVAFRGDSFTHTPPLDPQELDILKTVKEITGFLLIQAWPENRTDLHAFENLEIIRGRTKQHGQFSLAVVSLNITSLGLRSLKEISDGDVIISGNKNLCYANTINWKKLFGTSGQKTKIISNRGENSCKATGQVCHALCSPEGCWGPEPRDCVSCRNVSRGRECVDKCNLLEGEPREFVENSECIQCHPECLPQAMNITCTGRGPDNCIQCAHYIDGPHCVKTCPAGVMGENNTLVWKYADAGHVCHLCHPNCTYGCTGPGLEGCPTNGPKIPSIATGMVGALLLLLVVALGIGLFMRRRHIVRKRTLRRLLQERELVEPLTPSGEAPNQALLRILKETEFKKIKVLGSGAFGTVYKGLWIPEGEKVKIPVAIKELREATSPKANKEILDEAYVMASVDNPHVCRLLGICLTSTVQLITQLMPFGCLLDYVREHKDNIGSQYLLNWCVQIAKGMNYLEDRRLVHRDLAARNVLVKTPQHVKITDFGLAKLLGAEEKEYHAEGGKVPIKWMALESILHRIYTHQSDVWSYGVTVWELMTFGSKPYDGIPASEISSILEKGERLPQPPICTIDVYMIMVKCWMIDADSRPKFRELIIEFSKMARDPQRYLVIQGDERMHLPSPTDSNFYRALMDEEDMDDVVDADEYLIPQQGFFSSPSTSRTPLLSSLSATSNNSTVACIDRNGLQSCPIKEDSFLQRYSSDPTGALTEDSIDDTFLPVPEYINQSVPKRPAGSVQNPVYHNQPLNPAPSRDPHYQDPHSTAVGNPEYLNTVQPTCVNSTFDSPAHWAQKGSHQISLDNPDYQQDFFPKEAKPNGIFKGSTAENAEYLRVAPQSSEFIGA
T2 sequence (Q12809 whole entry): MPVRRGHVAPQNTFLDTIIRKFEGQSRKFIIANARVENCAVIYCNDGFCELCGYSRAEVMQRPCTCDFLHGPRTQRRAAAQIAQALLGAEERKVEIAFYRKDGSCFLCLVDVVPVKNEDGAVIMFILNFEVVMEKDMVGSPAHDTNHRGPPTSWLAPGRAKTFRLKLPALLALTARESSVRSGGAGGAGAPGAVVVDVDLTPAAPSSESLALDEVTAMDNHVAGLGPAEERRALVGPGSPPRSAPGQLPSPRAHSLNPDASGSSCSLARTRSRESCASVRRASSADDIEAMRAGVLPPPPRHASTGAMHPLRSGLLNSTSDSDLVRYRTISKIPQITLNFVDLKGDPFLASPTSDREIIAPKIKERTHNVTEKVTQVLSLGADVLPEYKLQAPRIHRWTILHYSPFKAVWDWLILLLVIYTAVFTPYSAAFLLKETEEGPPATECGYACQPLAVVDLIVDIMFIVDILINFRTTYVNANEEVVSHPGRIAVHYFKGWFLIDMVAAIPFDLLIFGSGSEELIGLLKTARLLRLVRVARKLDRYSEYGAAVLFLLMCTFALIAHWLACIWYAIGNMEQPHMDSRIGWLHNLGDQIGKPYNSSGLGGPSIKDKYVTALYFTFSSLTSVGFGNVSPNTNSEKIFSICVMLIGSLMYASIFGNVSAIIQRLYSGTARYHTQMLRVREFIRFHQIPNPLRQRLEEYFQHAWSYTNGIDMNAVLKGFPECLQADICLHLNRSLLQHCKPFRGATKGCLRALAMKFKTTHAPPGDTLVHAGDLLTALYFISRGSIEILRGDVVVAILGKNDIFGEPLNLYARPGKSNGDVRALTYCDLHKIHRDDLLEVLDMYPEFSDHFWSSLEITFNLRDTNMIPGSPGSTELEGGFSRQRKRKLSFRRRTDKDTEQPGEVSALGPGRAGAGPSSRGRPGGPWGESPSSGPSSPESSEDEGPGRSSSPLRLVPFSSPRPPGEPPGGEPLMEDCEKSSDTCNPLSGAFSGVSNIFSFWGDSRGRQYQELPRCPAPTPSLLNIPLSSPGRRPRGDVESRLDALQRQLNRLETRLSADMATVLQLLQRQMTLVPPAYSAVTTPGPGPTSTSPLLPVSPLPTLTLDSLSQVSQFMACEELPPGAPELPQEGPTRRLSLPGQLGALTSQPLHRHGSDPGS

As to `COc1cc2ncnc(Nc3ccc4c(cnn4Cc4cccc(F)c4)c3)c2cc1NC(=O)N1C[C@H]2CCN(C)[C@H]2C1` [Compound 1, (3aR,6aR)—N-(4-(1-(3-fluorobenzyl)-1H-indazol-5-ylamino)-7-methoxyquinazolin-6-yl)-1-methylhexahydropyrrolo[3,4-b]pyrrole-5(1H)-carboxamide], the IC50 (usually the point on the concentration scale where inhibition reaches its midpoint) at EGFR stood at 185 nM.

As to `COc1cc2ncnc(Nc3ccc4c(cnn4Cc4cccc(F)c4)c3)c2cc1NC(=O)N1C[C@@H]2CCN(C)[C@@H]2C1` [Compound 2, (3aS,6aS)—N-(4-(1-(3-fluorobenzyl)-1H-indazol-5-ylamino)-7-methoxyquinazolin-6-yl)-1-methylhexahydropyrrolo[3,4-b]pyrrole-5(1H)-carboxamide], at EGFR, the half-inhibitory concentration (IC50) stood at 439 nM.

Take `C#Cc1cccc(Nc2ncnc3cc(OC)c(NC(=O)N4C[C@H]5CCN(C)[C@H]5C4)cc23)c1` [Compound 3, (3aR,6aR)—N-(4-(3-ethynylphenylamino)-7-methoxyquinazolin-6-yl)-1-methyl-hexahydropyrrolo[3,4-b]pyrrole-5(1H)-carboxamide]: the values for the half-maximal inhibitory concentration (IC50) at hERG channels and at EGFR were 9300 ± 1200 nM and 6 nM, respectively. The TGI % in assay [1] (0.5 mpk p.o. qd x 21 days) stood at 59.2%; in assay [1] (1 mpk p.o. qd x 21 days), 114.7%; in assay [1] (2 mpk p.o. qd x 21 days), 127.8%; in assay [1] (5 mpk p.o. qd x 21 days), 140.8%; in assay [2] (2 mpk p.o. qd x 21 days) it was 21.3%; in assay [2] (5 mpk p.o. qd x 21 days) it was 62.8%. Moreover, the TGI % in assay [2] (10 mpk p.o. qd x 21 days) amounted to 85.3%; in assay [3] (2 mpk p.o. qd x 21 days), 46.1%; in assay [3] (5 mpk p.o. qd x 21 days) it was 66.9%; in assay [3] (10 mpk p.o. qd x 21 days) it was 95.2%.

Regarding `COc1cc2ncnc(Nc3ccc(OCc4cccc(F)c4)c(Cl)c3)c2cc1NC(=O)N1C[C@@H]2CCN(C)[C@@H]2C1` [Compound 4, (3aS,6aS)—N-(4-(3-chloro-4-(3-fluorobenzyloxy)phenylamino)-7-methoxyquinazolin-6-yl)-1-methylhexahydropyrrolo[3,4-b]pyrrole-5(1H)-carboxamide], the IC50 at EGFR was 16 nM.

As for `COc1cc2ncnc(Nc3ccc(OCc4cccc(F)c4)c(Cl)c3)c2cc1NC(=O)N1C[C@H]2CCN(C)[C@H]2C1` [Compound 5, (3aR,6aR)—N-(4-(3-chloro-4-(3-fluorobenzyloxy)phenylamino)-7-methoxyquinazolin-6-yl)-1-methylhexahydropyrrolo[3,4-b]pyrrole-5(1H)-carboxamide], the IC50 at EGFR was 44 nM.

For `CN1CC[C@H]2CN(C(=O)Nc3ccc4ncnc(Nc5ccc(OCc6cccc(F)c6)c(Cl)c5)c4c3)C[C@H]21` [Compound 6, (3aS,6aS)—N-(4-(3-chloro-4-(3-fluorobenzyloxy)phenylamino)quinazolin-6-yl)-1-methylhexahydropyrrolo[3,4-b]pyrrole-5(1H)-carboxamide], the IC50 at EGFR was 210 nM.

`CN1CC[C@@H]2CN(C(=O)Nc3ccc4ncnc(Nc5ccc(OCc6cccc(F)c6)c(Cl)c5)c4c3)C[C@@H]21` [Compound 7]: at EGFR, the IC50 came out at 241 nM.
